From article PMC7876453, “Targeting Indoleamine 2,3-Dioxygenase in Cancer Models Using the Novel Small Molecule Inhibitor NTRC 3883-0” (Frontiers in Immunology, 2021)
Like-named read-outs stand apart in the source and are kept apart here.

Tests used:
human TDO = target: T1, human TDO (Homo sapiens, UniProt P48775); experiment: human TDO biochemical assay (NFK GreenScreen); conditions: biochemical
T1 construct: hexahistidine (C); made in house; host or cells: Escherichia coli
Description: Full-length recombinant human and mouse IDO1 were expressed in Escherichia coli with a hexahistidine tag at the N-terminus, and purified by affinity chromatography to > 95% purity, as described ([8]). Human and mouse TDO containing a C-terminal hexahistidine tag were analogously expressed and purified to > 95% purity ([8]). The inhibitory activity of compounds was determined with the NFK GreenScreen assay technology under the conditions as described ([8]), except for the reaction buffer for IDO1, which was replaced by 50 mM NaH2PO4, pH 7.0, supplemented with 0.01% Tween-20 and 1% glycerol. Inhibition of the CYP3A4 and CYP2D6 enzymes was determined with the P450-Glo™ Screening System with Luciferin-IPA (Promega, #V9920 and V9890). For determination of IC50 values, the effect of inhibitors was determined in 10-point duplicate dose-response curves. Graphs were fitted to a four-parameter logistics equation in XLfit (ID Business Solutions, Ltd., Guildford, UK) from which IC50 values were calculated.

[1] = test system: panel of 44 pharmacologically relevant receptors, ion channels, transporters and enzymes; experiment: Eurofins-CEREP selectivity panel; conditions: 10 µM
[2] = plasma protein binding, human; format: in vitro ADME; conditions: column Human (predicted)
Description: Supplement DataSheet_1.docx, table 2: Table S2. Pharmacokinetic parameters of NTRC 3883-0 observed in mouse, rat, monkey and dog, and predicted for humans using allometric scaling. Data in bold are measured, while data in italics are calculated or predicted (for humans). The clearance (Cl) and volume of distribution at steady state (Vss | column: Human (predicted)

[3] = test system: unstimulated adherent cell samples isolated from ascites of ovarian cancer patients; experiment: Trp-catabolizing activity in unstimulated ascites cell samples; format: cell-based, human; conditions: for IC50: Homo sapiens
Description: Ascites was collected from patients with a primary diagnosis of advanced epithelial ovarian cancer during paracentesis for diagnostics or symptom relieve, or during primary debulking surgery. Ascites was filtered and cells were collected by centrifugation as described ([23]). To enrich for tumor cells, ascites cell samples were allowed to adhere overnight to tissue culture plastic. The cell samples were then cultured for 2–3 weeks in advanced RPMI medium (ThermoFisher), supplemented with 10% FBS, 1% glutamax and 1% P/S, with 2 or 3 times passaging of the cells. qPCR analyses of the MUC16, HE4, IDO1, and TDO2 genes were performed for all samples as described above. Five samples which could be cultured over multiple passages were analyzed for cell surface expression of mucin-16 and EpCAM by flow cytometry using FITC-conjugated anti-mucin-16 (AssayPro, #32189-05141) and APC-conjugated anti-EpCAM (Miltenyi, #130-111-117, RRID: AB_2657496) to assure that the cell cultures consisted of malignant cells. IDO1 mRNA and protein levels in these samples were analyzed as described above after incubation with or without 200 ng/ml IFNγ for 24 h. The collection of ascites and the research described was conducted with approval of the medical ethical committee of the Radboud university medical center and informed written consent from each subject.

T1 sequence (P48775 whole entry): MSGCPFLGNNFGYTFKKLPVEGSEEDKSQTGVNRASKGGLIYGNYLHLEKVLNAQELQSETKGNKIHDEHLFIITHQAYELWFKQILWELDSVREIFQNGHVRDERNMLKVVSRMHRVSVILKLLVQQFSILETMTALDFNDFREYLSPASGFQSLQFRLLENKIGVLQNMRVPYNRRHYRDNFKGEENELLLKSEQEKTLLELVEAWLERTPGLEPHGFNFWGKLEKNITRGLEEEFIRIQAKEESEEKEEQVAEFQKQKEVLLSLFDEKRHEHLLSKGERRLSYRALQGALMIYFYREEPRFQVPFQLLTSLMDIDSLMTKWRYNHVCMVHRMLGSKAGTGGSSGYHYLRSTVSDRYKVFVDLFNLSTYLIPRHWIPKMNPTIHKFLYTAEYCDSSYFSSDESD

Q: What does the source list for O=C1CN(C(=O)c2c(F)cccc2F)[C@H](c2cccc(Br)c2)N1O [NTRC 3883-0]?
A: inhibition at 31.6 µM (human TDO; @ 31,600 nM, read-out: inhibition hTDO): < 20%; activity on human TDO (in words) (human TDO; highest tested concentration 31.6 µM): inactive; cross-reactivities in panel of 44 targets [1]: no cross-reactivities; fraction unbound [2]: 0.26; inhibition of basal Trp-catabolizing activity (in words) [3]: no or only minimal inhibition; IC50 ([3]; mean of samples, read-out: IC50 Mean): > 31.6 µM; IC50 ([3]; read-out: IC50 ASC 010): > 31.6 µM; IC50 ([3]; read-out: IC50 ASC 013): > 31.6 µM; IC50 ([3]; read-out: IC50 ASC 031): > 31.6 µM; IC50 ([3]; read-out: IC50 ASC 041): > 31.6 µM
